{
  "source": "paper PMC6116501",
  "about": "“Improved secretory expression of lignocellulolytic enzymes in Kluyveromyces marxianus by promoter and signal sequence engineering” (Biotechnology for Biofuels, 2018)",
  "molecular_target": "T1, Est1E (uncultured bacterium, UniProt A0A345Z1H0)",
  "T1 construct": "3 extra residues kept; no His tag; 29 kDa theoretical; purified by ion exchange and gel filtration",
  "T1 sequence (A0A345Z1H0 1-248)": "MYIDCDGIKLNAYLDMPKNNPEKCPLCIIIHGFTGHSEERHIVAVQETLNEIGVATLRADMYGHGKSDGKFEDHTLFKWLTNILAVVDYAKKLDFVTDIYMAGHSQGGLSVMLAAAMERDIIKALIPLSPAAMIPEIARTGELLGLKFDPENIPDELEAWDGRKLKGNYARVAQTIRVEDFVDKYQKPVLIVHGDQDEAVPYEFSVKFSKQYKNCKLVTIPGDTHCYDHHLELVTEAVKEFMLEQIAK",
  "experiment": "absorbance at […] nm of released 2-chloro-4-nitrophenol",
  "type": "biochemical",
  "details": "about […] substrate in PBST pH […] °C, […] min (assay as described for culture supernatant; also run on purified enzyme)",
  "data": [
    {"smiles": "COc1cc(/C=C/C(=O)Oc2ccc([N+](=O)[O-])cc2Cl)ccc1O", "note": "[CNPF, 2-chloro-4-nitrophenyl ferulate]", "values": [
      {"measurement": "absorbance at 410 nm of released 2-chloro-4-nitrophenol", "value": "The activity of Est1E in the supernatant was measured by means of 2-chloro-4-nitrophenyl ferulate (CNPF)"}
    ]}
  ]
}
